Values of other authors, collected in patent US6610313B2, “Lysophospholipids composition with water solubility” (Doosan Corporation, priority 2001, dated 2003).

How the values were obtained:
[1] = LPE alone
phospholipase D = conditions: Proc. Natl. Acad. Sci. USA, Vol.94, pp12717-12721
tomato = conditions: U.S. Pat. Nos. 5,220,341 and 5,126,155

Row | water solubility of LPE itself [1] | inhibition effect of phospholipase D (phospholipase D) | Substance | aging of leaves and fruits of tomato (tomato) | storage time of tomato after harvesting (tomato)
1 | not water-soluble | most excellent | lysophosphatidylethanolamine [LPE] | inhibits the aging of leaves and fruits of tomato | extends the storage time of tomato after harvesting
2 | – | opposite | lysophosphatidylglycerol [LPG, reference compound] | – | –
3 | – | gradually decreases | lysophosphatidylinositol [LPI] | – | –

The remaining lines, values behind:

Row | Substance | water solubility of LPE itself [1] | inhibition effect of phospholipase D (phospholipase D) | aging of leaves and fruits of tomato (tomato) | storage time of tomato after harvesting (tomato)
4 | lysophosphatidylic acid [LPA, reference compound] | – | cannot inhibit | – | –
5 | lysophosphatidylserine [LPS, reference compound] | – | opposite | – | –
6 | lysophosphatidylcholine [LPC] | – | only a slight activity | – | –
